Assay: Single dose subcutaneous pharmacokinetics in CD-1 mice
Assay type: in vivo
Conditions: mouse, plasma, sc, 10 mg/kg single dose
Description: Single Dose Subcutaneous Pharmacokinetics in CD-1 Mice The subcutaneous bioavailability was determined in the following study: three CD-1 mice were dosed by subcutaneous injection (10 mg/kg) and plasma was collected at the following hourly time points (0.25, 0.5, 1, 2, 4, 8, and 24 h). Plasma compound concentations were determined by HPLC.

SMILES: Cc1ncsc1-c1ccc([C@H](C)NC(=O)[C@@H]2C[C@@H](O)CN2C(=O)[C@@H](NC(=O)COCCOCCOCCOc2ccc(Cn3c(-c4ccc(O)cc4)c(C)c4cc(O)ccc43)cc2)C(C)(C)C)cc1 [Example #5, (2S,4R)-4-hydroxy-1-[(2S)-2-[1-(4-[[5-hydroxy-2-(4-hydroxyphenyl)-3-methyl-1H-indol-1-yl]methyl]phenyl)-1,4,7,10-tetraoxadodecan-12-amido]-3,3-dimethylbutanoyl]-N-[(1S)-1-[4-(4-methyl-1,3-thiazol-5-yl)phenyl]ethyl]pyrrolidine-2-carboxamide]
- bioavailability (read-out: F % (subcutaneous bioavailability)): 100%
- AUC(0-inf): 8280 ng·h/mL
- Cmax: 687 ng/mL
- Tmax: 4 h
- half-life: 12 h
